PubChem BioAssay (NCI)
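Where inhibition never reached the appropriate level, the endpoint shown equals the highest concentration tested. Otherwise, values were interpolated linearly from a five-concentration, 48-hour dose response in 96-well plates. GI50 marks 50% less growth. TGI is the concentration that stops growth completely.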

How the values were obtained:
Assay in all cases: inhibition of tumour cell growth, NCI panel, 48 h
CAKI-1 renal = system: CAKI-1 renal
NCI-H23 lung = system: NCI-H23 lung
SF-539 CNS = system: SF-539 CNS
SF-295 CNS = system: SF-295 CNS
HL-60(TB) leukemia = system: HL-60(TB) leukemia
SNB-19 CNS = system: SNB-19 CNS
HCT-15 colon = system: HCT-15 colon
NCI/ADR-RES ovarian = system: NCI/ADR-RES ovarian
MDA-MB-231 breast = system: MDA-MB-231 breast
SK-MEL-2 melanoma = system: SK-MEL-2 melanoma
RPMI-8226 leukemia = system: RPMI-8226 leukemia
UACC-257 melanoma = system: UACC-257 melanoma
ACHN renal = system: ACHN renal
BT-549 breast = system: BT-549 breast
SNB-75 CNS = system: SNB-75 CNS
OVCAR-4 ovarian = system: OVCAR-4 ovarian
IGROV1 ovarian = system: IGROV1 ovarian
RXF 393 renal = system: RXF 393 renal
HOP-62 NSCLC = system: HOP-62 NSCLC
OVCAR-5 ovarian = system: OVCAR-5 ovarian
OVCAR-8 ovarian = system: OVCAR-8 ovarian
OVCAR-3 ovarian = system: OVCAR-3 ovarian
KM12 colon = system: KM12 colon
SK-OV-3 ovarian = system: SK-OV-3 ovarian
UACC-62 melanoma = system: UACC-62 melanoma
CCRF-CEM leukemia = system: CCRF-CEM leukemia
K-562 leukemia = system: K-562 leukemia
SR leukemia = system: SR leukemia
HT29 colon = system: HT29 colon
NCI-H460 lung = system: NCI-H460 lung
MALME-3M melanoma = system: MALME-3M melanoma
SK-MEL-5 melanoma = system: SK-MEL-5 melanoma
M14 melanoma = system: M14 melanoma
A549 NSCLC = system: A549 NSCLC
MDA-MB-435 = system: MDA-MB-435
A498 renal = system: A498 renal
SK-MEL-28 melanoma = system: SK-MEL-28 melanoma
HOP-92 NSCLC = system: HOP-92 NSCLC
PC-3 prostate = system: PC-3 prostate
NCI-H226 lung = system: NCI-H226 lung
HCC-2998 colon = system: HCC-2998 colon
EKVX NSCLC = system: EKVX NSCLC
TK-10 renal = system: TK-10 renal
786-0 renal = system: 786-0 renal
U251 CNS = system: U251 CNS
SF-268 CNS = system: SF-268 CNS
MOLT-4 leukemia = system: MOLT-4 leukemia
SW-620 colon = system: SW-620 colon
MCF7 breast = system: MCF7 breast
DU-145 prostate = system: DU-145 prostate
UO-31 renal = system: UO-31 renal
LOX IMVI melanoma = system: LOX IMVI melanoma
SN12C renal = system: SN12C renal
HCT-116 colon = system: HCT-116 colon
HS 578T breast = system: HS 578T breast
T-47D breast = system: T-47D breast
COLO 205 colon = system: COLO 205 colon
NCI-H522 lung = system: NCI-H522 lung
MDA-N = system: MDA-N

## Cn1c(COC(=O)N2CCCCC2)nc2c(N3CCOCC3)nc(-c3ccccc3)nc21
CAKI-1 renal
  GI50: 354 nM
  TGI: 1510 nM
NCI-H23 lung
  GI50: 1480 nM
  TGI: 3110 nM
SF-539 CNS
  GI50: 1330 nM
  TGI: 2610 nM
SF-295 CNS
  GI50: 1580 nM
  TGI: 2970 nM
HL-60(TB) leukemia
  GI50: 592 nM
  TGI: 2440 nM
SNB-19 CNS
  GI50: 1510 nM
  TGI: 2860 nM
HCT-15 colon
  GI50: 212 nM
  TGI: 509 nM
NCI/ADR-RES ovarian
  GI50: 1670 nM
  TGI: 5720 nM
MDA-MB-231 breast
  GI50: 1020 nM
  TGI: 2270 nM
SK-MEL-2 melanoma
  GI50: 1640 nM
  TGI: 3250 nM
RPMI-8226 leukemia
  GI50: 257 nM
  TGI: 814 nM
UACC-257 melanoma
  GI50: 1220 nM
  TGI: 2670 nM
ACHN renal
  GI50: 352 nM
  TGI: 1290 nM
BT-549 breast
  GI50: 1010 nM
  TGI: 2260 nM
SNB-75 CNS
  GI50: 817 nM
  TGI: 2180 nM
OVCAR-4 ovarian
  GI50: 638 nM
  TGI: 1850 nM
IGROV1 ovarian
  GI50: 534 nM
  TGI: 1810 nM
RXF 393 renal
  GI50: 508 nM
  TGI: 1760 nM
HOP-62 NSCLC
  GI50: 1420 nM
  TGI: 3210 nM
OVCAR-5 ovarian
  GI50: 1420 nM
  TGI: 2970 nM
OVCAR-8 ovarian
  GI50: 1030 nM
  TGI: 2570 nM
OVCAR-3 ovarian
  GI50: 182 nM
  TGI: 390 nM
KM12 colon
  GI50: 1460 nM
  TGI: 3220 nM
SK-OV-3 ovarian
  GI50: 2640 nM
  TGI: 10500 nM
UACC-62 melanoma
  GI50: 1270 nM
  TGI: 2540 nM
CCRF-CEM leukemia
  GI50: 307 nM
  TGI: 1480 nM
K-562 leukemia
  GI50: 364 nM
  TGI: 6700 nM
SR leukemia
  GI50: 287 nM
  TGI: 2340 nM
HT29 colon
  GI50: 417 nM
  TGI: 1590 nM
NCI-H460 lung
  GI50: 1580 nM
  TGI: 3270 nM
MALME-3M melanoma
  GI50: 1390 nM
  TGI: 2720 nM
SK-MEL-5 melanoma
  GI50: 1470 nM
  TGI: 2790 nM
M14 melanoma
  GI50: 509 nM
  TGI: 1890 nM
A549 NSCLC
  GI50: 1480 nM
  TGI: 3450 nM
MDA-MB-435
  GI50: 580 nM
  TGI: 1860 nM
A498 renal
  GI50: 1370 nM
  TGI: 2690 nM
SK-MEL-28 melanoma
  GI50: 1520 nM
  TGI: 2860 nM
HOP-92 NSCLC
  GI50: 492 nM
  TGI: 1930 nM
PC-3 prostate
  GI50: 666 nM
  TGI: 2150 nM
NCI-H226 lung
  GI50: 1590 nM
  TGI: 3620 nM
HCC-2998 colon
  GI50: 1580 nM
  TGI: 3040 nM
EKVX NSCLC
  GI50: 1220 nM
  TGI: 2650 nM
TK-10 renal
  GI50: 1350 nM
  TGI: 2660 nM
786-0 renal
  GI50: 732 nM
  TGI: 2000 nM
U251 CNS
  GI50: 1370 nM
  TGI: 2810 nM
SF-268 CNS
  GI50: 1330 nM
  TGI: 2710 nM
MOLT-4 leukemia
  GI50: 353 nM
  TGI: 2000 nM
SW-620 colon
  GI50: 235 nM
  TGI: 539 nM
MCF7 breast
  GI50: 378 nM
  TGI: 1790 nM
DU-145 prostate
  GI50: 1010 nM
  TGI: 2310 nM
UO-31 renal
  GI50: 260 nM
  TGI: 1450 nM
LOX IMVI melanoma
  GI50: 166 nM
  TGI: 337 nM
SN12C renal
  GI50: 868 nM
  TGI: 2170 nM
HCT-116 colon
  GI50: 173 nM
  TGI: 471 nM
HS 578T breast
  GI50: 698 nM
  TGI: 2910 nM
T-47D breast
  GI50: 1470 nM
  TGI: 3910 nM
COLO 205 colon
  GI50: 1030 nM
  TGI: 2630 nM
NCI-H522 lung
  GI50: 406 nM
  TGI: 1760 nM

## Cc1csc2nc(-c3ccc([N+](=O)[O-])cc3)c(/C=N/N=C(N)N)n12
CAKI-1 renal
  TGI: 12600 nM
NCI-H23 lung
  TGI: 3200 nM
SF-539 CNS
  TGI: 3080 nM
SF-295 CNS
  TGI: 3240 nM
HL-60(TB) leukemia
  TGI: 4490 nM
SNB-19 CNS
  TGI: 4180 nM
HCT-15 colon
  TGI: 1680 nM
NCI/ADR-RES ovarian
  TGI: > 50800 nM
MDA-MB-231 breast
  TGI: 3520 nM
SK-MEL-2 melanoma
  TGI: 2860 nM
RPMI-8226 leukemia
  TGI: 4120 nM
UACC-257 melanoma
  TGI: 3050 nM
ACHN renal
  TGI: 2710 nM
BT-549 breast
  TGI: 211 nM
SNB-75 CNS
  TGI: 2970 nM
OVCAR-4 ovarian
  TGI: 3040 nM
IGROV1 ovarian
  TGI: 2750 nM
RXF 393 renal
  TGI: 3450 nM
HOP-62 NSCLC
  TGI: 3280 nM
OVCAR-5 ovarian
  TGI: 2850 nM
OVCAR-8 ovarian
  TGI: 2680 nM
OVCAR-3 ovarian
  TGI: 5700 nM
KM12 colon
  TGI: 3490 nM
SK-OV-3 ovarian
  TGI: 3110 nM
UACC-62 melanoma
  TGI: 3170 nM
CCRF-CEM leukemia
  TGI: 4110 nM
HT29 colon
  TGI: 3210 nM
NCI-H460 lung
  TGI: 3430 nM
MDA-N
  TGI: 3510 nM
MALME-3M melanoma
  TGI: 3610 nM
SK-MEL-5 melanoma
  TGI: 3960 nM
M14 melanoma
  TGI: 3410 nM
A549 NSCLC
  TGI: 3200 nM
MDA-MB-435
  TGI: 3160 nM
A498 renal
  TGI: 3460 nM
SK-MEL-28 melanoma
  TGI: 3230 nM
HOP-92 NSCLC
  TGI: 2220 nM
PC-3 prostate
  TGI: 3250 nM
HCC-2998 colon
  TGI: 1590 nM
EKVX NSCLC
  TGI: 2730 nM
TK-10 renal
  TGI: 3900 nM
786-0 renal
  TGI: 3240 nM
U251 CNS
  TGI: 3240 nM
SF-268 CNS
  TGI: 3290 nM
DU-145 prostate
  TGI: 4300 nM
UO-31 renal
  TGI: 2880 nM
LOX IMVI melanoma
  TGI: 3630 nM
SN12C renal
  TGI: 3280 nM
HCT-116 colon
  TGI: 3760 nM
HS 578T breast
  TGI: 3150 nM
T-47D breast
  TGI: > 100000 nM
COLO 205 colon
  TGI: 2960 nM
NCI-H522 lung
  TGI: 3080 nM
